Source: ChEMBL document CHEMBL2150939, “Synthesis and cytotoxicity of novel ursolic acid derivatives containing an acyl piperazine moiety” (Eur J Med Chem, 2012)
Activity calls are given as the source filed them. No cut-off for these calls is given here.

What was measured:
MGC-803 [1] = experiment: Growth inhibition of human MGC803 cells at 10 uM after 72 hrs by MTT assay; assay type: functional; settings: MGC-803, 72 h, read-out: GI
MGC-803 [2] = experiment: Induction of apoptosis in human MGC803 cells assessed as DNA fragmentation at 10 uM after 24 hrs by TUNEL assay; assay type: functional, cell-based
Bcap37 [3] = experiment: Growth inhibition of human Bcap37 cells at 10 uM after 72 hrs by MTT assay; assay type: functional; settings: Bcap37, 72 h, read-out: GI
MGC-803 [4] = experiment: Induction of apoptosis in human MGC803 cells assessed as condensed chromatin at 10 uM after 48 hrs by Hoechst 33258 staining; assay type: functional, cell-based
[5] = Growth inhibition of mouse NIH/3T3 cells at 10 uM after 72 hrs by MTT assay; assay type: cell-based, NIH3T3; settings: read-out: GI
MGC-803 [6] = experiment: Induction of apoptosis in human MGC803 cells assessed as pyknosis at 10 uM after 48 hrs by acridine orange/ethidium bromide staining; assay type: functional, cell-based
MGC-803 [7] = experiment: Antiproliferative activity against human MGC803 cells after 72 hrs by MTT assay; assay type: functional, cell-based; settings: MGC-803, 72 h
MGC-803 [8] = experiment: Induction of apoptosis in human MGC803 cells assessed as membrane blebbing at 10 uM after 48 hrs by acridine orange/ethidium bromide staining; assay type: functional, cell-based
MGC-803 [9] = experiment: Induction of apoptosis in human MGC803 cells assessed as cell budding at 10 uM after 48 hrs by acridine orange/ethidium bromide staining; assay type: functional, cell-based
Bcap37 [10] = experiment: Antiproliferative activity against human Bcap37 cells after 72 hrs by MTT assay; assay type: functional, cell-based; settings: Bcap37, 72 h, read-out: IC50
MGC-803 [11] = experiment: Induction of apoptosis in human MGC803 cells assessed as early and late apoptotic level at 10 uM after 36 hrs by annexinV/FITC-PI staining-based flow cytometric analysis; assay type: functional
MGC-803 [12] = experiment: Induction of apoptosis in human MGC803 cells assessed as early and late apoptotic level at 10 uM after 24 hrs by annexinV/FITC-PI staining-based flow cytometric analysis; assay type: functional
MGC-803 [13] = experiment: Induction of apoptosis in human MGC803 cells assessed as cell budding at 5 uM at 24 hrs by acridine orange/ethidium bromide staining
MGC-803 [14] = experiment: Induction of apoptosis in human MGC803 cells assessed as early apoptotic cells at 5 uM after 24 hrs by acridine orange/ethidium bromide staining; assay type: functional, cell-based
MGC-803 [15] = experiment: Induction of apoptosis in human MGC803 cells assessed as DNA fragmentation at 2.5 to 10 uM after 24 hrs by TUNEL assay; assay type: functional, cell-based
MGC-803 [16] = experiment: Induction of apoptosis in human MGC803 cells assessed as late apoptotic cells at 5 uM after 48 hrs by acridine orange/ethidium bromide staining; assay type: functional, cell-based
MGC-803 [17] = experiment: Induction of apoptosis in human MGC803 cells assessed as early and late apoptotic level at 10 uM after 12 hrs by annexinV/FITC-PI staining-based flow cytometric analysis; assay type: functional
MGC-803 [18] = experiment: Induction of apoptosis in human MGC803 cells assessed as membrane blebbing at 5 uM after 12 to 48 hrs by acridine orange/ethidium bromide staining; assay type: functional, cell-based
MGC-803 [19] = experiment: Induction of apoptosis in human MGC803 cells at 10 uM by annexinV/FITC-PI staining-based flow cytometric analysis; assay type: functional, cell-based; settings: TDE = time-dependent effect
MGC-803 [20] = experiment: Induction of apoptosis in human MGC803 cells assessed as condensed chromatin at 5 uM after 12 to 48 hrs by Hoechst 33258 staining; assay type: functional, cell-based
MGC-803 [21] = experiment: Induction of apoptosis in human MGC803 cells assessed as pyknosis at 5 uM after 12 to 48 hrs by acridine orange/ethidium bromide staining; assay type: functional, cell-based
MGC-803 [22] = experiment: Induction of apoptosis in human MGC803 cells assessed as cell budding at 5 uM up to 48 hrs by acridine orange/ethidium bromide staining; assay type: functional, cell-based

With `C[C@H]1[C@H](C)CC[C@]2(C(=O)O)CC[C@]3(C)C(=CC[C@@H]4[C@@]5(C)CC[C@H](O)C(C)(C)[C@@H]5CC[C@]43C)[C@H]12` [URSOLIC ACID] the inhibition of growth at 10 µM (MGC-803 [1]) was 28.9%, the Activity (MGC-803 [2]) was “Active” and the inhibition of growth at 10 µM (Bcap37 [3]) was 11.9%. For the same compound, the Activity (MGC-803 [4]) was “Active”, the inhibition at 72 h, 10 µM [5] was 14% and the Activity (MGC-803 [6]) was “Active”. The IC50 (MGC-803 [7]) was 24.3 µM, the Activity (MGC-803 [8]) was “Active” and the Activity (MGC-803 [9]) was “Active”. The IC50 (Bcap37 [10]) was 28.7 µM.

Work on `C[C@H]1[C@H](C)CC[C@]2(C(=O)OCCN3CCN(C(=O)c4c(Cl)cccc4Cl)CC3)CC[C@]3(C)C(=CC[C@@H]4[C@@]5(C)CC[C@H](O)C(C)(C)[C@@H]5CC[C@]43C)[C@H]12` yielded an inhibition of growth at 10 µM (MGC-803 [1]) of 95.6%, an Activity (MGC-803 [11]) of 33.35% and an Activity (MGC-803 [12]) of 28.01%. The Activity (MGC-803 [13]) was “Active”, the Activity (MGC-803 [14]) was “Active” and the Activity (MGC-803 [15]) was “Active”. For the same compound, the Activity (MGC-803 [16]) was “Active”, the Activity (MGC-803 [17]) was 23.57% and the inhibition of growth at 10 µM (Bcap37 [3]) was 76%. For the same compound, the Activity (MGC-803 [18]) was “Active”, the Activity (MGC-803 [19]) was “tde” and the Activity (MGC-803 [20]) was “Active”. For the same compound, the inhibition at 72 h, 10 µM [5] was 32.1%, the Activity (MGC-803 [21]) was “Active” and the Activity (MGC-803 [22]) was “Active”. It also gave an IC50 (MGC-803 [7]) of 2.5 µM and an IC50 (Bcap37 [10]) of 9.24 µM.
